Reference: the NIST ThermoML archive (doi:10.1021/je201102x)
Numbers after ± are expanded uncertainties.

Assays:
[1] = 101.33 kPa, Liquid, Vibrating tube method
[2] = refractive index (Na D-line) (dimensionless); settings: 293.15 K; 101.33 kPa; Liquid; Standard Abbe refractometry

Row | mass density ([1]; 293.15 K) | mass density ([1]; 298.15 K) | mass density ([1]; 303.15 K) | mass density ([1]; 313.15 K) | mass density ([1]; 323.15 K) | mass density ([1]; 333.15 K) | refractive index [2] | Compound
1 | 806.75 ± 0.24 kg/m3 | 802.62 ± 0.24 kg/m3 | 798.43 ± 0.24 kg/m3 | 789.75 ± 0.24 kg/m3 | 780.65 ± 0.24 kg/m3 | 771.1 ± 0.24 kg/m3 | 1.3943 ± 0.0008 | CCC(C)O (stereo not given) [butan-2-ol]
2 | 993.56 ± 0.09 kg/m3 | 988.15 ± 0.1 kg/m3 | 982.75 ± 0.1 kg/m3 | 971.96 ± 0.1 kg/m3 | 961.16 ± 0.11 kg/m3 | 950.35 ± 0.11 kg/m3 | 1.3835 ± 0.0008 | CCC(=O)O [propanoic acid]

Second part, the compound before the results:

Row | Compound | mass density ([1]; 293.15 K) | mass density ([1]; 298.15 K) | mass density ([1]; 303.15 K) | mass density ([1]; 313.15 K) | mass density ([1]; 323.15 K) | mass density ([1]; 333.15 K) | refractive index [2]
3 | CC(=O)O [acetic acid] | 1049.31 ± 0.08 kg/m3 | 1043.65 ± 0.08 kg/m3 | 1037.99 ± 0.07 kg/m3 | 1026.68 ± 0.07 kg/m3 | 1015.36 ± 0.07 kg/m3 | 1004.01 ± 0.07 kg/m3 | 1.3687 ± 0.0008
4 | CCC(C)(C)O [2-methylbutan-2-ol] | 808.98 ± 0.14 kg/m3 | 804.39 ± 0.15 kg/m3 | 799.75 ± 0.15 kg/m3 | 790.27 ± 0.15 kg/m3 | 780.46 ± 0.16 kg/m3 | 770.27 ± 0.16 kg/m3 | 1.4016 ± 0.0008
5 | CC(C)CO [2-methyl-1-propanol] | 801.99 ± 0.24 kg/m3 | 798.13 ± 0.24 kg/m3 | 794.24 ± 0.24 kg/m3 | 786.28 ± 0.24 kg/m3 | 778.09 ± 0.24 kg/m3 | 769.6 ± 0.24 kg/m3 | 1.3929 ± 0.0008
